The values that follow come from US9796711B2, “Substituted pyrazolo[3,4-b]pyridin-6-carboxylic acids and method of use” (AbbVie S.àr.l., priority 2015, dated 2017).

SMILES strings stand for the structures.

The target in assay [1] is T1, ΔF508-CFTR (Homo sapiens, UniProt P13569, DEL508-508).
T1 construct: host or cells: CFBE41o-, doxycycline-inducible
In words: CFTR cell surface levels using HRP-tagged ΔF508-CFTR expressing CFBE cells, in the presence of a co-corrector. It counts as cell-based. The following applies: HRP-tagged ΔF508-CFTR expressing CFBE cells, in the presence of 3 μM co-corrector; for EC50: read-out: EC50. The method in brief: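 Cells were seeded with 0.5 μg/mL doxycycline and held 68 h at 37 °C. Test compounds plus 3 μM co-corrector (final 0.1% DMSO) were then added for 20 h at 33 °C. Washed cells received HRP substrate, and luminescence was normalized between DMSO and 3 μM co-corrector controls.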

For assay [2], the target named is T1, ΔF508-CFTR. In words: CFTR cell surface levels using HRP-tagged ΔF508-CFTR expressing CFBE cells, intrinsic corrector capacity. The class given is cell-based. Particulars: for EC50: read-out: EC50. Put shortly:
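Here the cells express ΔF508-CFTR with horseradish peroxidase inserted in extracellular loop 4, so only rescued channel at the surface gives luminescent signal. Compounds act on their own, 20 h at the reduced temperature of 33 °C; values are percent activity relative to DMSO and a 3 μM corrector.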

The mark [3] stands for this setting: HRP-tagged ΔF508-CFTR expressing CFBE cells, intrinsic corrector capacity (no co-corrector), 33° C., 20 hours.
[4] abbreviates: HRP-tagged ΔF508-CFTR CFBE41o- cells, compounds alone (intrinsic corrector capacity), 20 hours at 33° C., positive control 3 μM corrector.
The mark [5] stands for this setting: HRP-tagged ΔF508-CFTR CFBE41o- cells, compounds alone (intrinsic corrector capacity), 20 hours at 33° C.
The mark [6] stands for this setting: HRP-tagged ΔF508-CFTR CFBE cells, compound alone (intrinsic corrector capacity), 20 hours at 33° C.

T1 sequence (P13569 with tags, fused parts or gaps DEL508-508): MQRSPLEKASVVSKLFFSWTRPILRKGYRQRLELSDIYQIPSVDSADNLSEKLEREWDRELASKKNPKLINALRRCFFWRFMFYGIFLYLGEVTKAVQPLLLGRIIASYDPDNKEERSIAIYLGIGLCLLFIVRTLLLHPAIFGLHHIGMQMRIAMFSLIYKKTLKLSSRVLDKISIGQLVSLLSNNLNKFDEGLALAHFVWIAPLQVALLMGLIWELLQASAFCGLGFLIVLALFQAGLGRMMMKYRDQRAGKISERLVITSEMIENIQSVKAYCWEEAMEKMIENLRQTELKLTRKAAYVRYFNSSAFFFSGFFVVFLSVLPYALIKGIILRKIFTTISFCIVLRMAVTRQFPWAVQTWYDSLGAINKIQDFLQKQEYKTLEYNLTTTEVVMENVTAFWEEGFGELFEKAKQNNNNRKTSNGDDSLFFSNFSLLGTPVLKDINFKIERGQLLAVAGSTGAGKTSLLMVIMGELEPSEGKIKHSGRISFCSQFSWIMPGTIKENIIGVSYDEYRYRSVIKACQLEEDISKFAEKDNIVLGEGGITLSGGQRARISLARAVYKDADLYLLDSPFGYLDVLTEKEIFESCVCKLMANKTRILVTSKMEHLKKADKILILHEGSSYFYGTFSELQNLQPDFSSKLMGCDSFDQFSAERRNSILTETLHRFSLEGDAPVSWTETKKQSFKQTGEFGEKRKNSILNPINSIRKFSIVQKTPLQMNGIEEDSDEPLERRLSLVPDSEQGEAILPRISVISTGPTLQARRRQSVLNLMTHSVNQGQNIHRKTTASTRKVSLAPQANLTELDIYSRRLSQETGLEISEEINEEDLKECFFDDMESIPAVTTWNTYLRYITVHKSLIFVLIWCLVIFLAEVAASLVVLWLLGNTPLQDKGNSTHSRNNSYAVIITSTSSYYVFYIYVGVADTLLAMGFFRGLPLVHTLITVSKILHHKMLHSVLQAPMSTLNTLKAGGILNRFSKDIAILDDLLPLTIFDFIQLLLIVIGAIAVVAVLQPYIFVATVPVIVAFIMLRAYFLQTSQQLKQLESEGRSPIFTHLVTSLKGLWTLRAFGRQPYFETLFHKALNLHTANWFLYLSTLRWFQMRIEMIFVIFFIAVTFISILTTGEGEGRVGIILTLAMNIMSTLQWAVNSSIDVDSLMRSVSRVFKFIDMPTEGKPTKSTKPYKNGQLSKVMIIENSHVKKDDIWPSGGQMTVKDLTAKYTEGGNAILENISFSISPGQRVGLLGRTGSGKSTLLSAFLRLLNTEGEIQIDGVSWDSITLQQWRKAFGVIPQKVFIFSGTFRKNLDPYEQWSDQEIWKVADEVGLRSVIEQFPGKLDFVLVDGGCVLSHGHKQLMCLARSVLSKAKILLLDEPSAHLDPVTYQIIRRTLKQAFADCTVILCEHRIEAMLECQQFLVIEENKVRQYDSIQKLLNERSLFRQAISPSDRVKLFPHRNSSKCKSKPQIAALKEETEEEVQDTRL

`CC(C)c1nn(-c2ccc(F)cc2)c2nc(C(=O)O)cc(N3CC(N4CCCC4)C3)c12` [compound 794, 1-(4-fluorophenyl)-3-(propan-2-yl)-4-[3-(pyrrolidin-1-yl)azetidin-1-yl]-1H-pyrazolo[3,4-b]pyridine-6-carboxylic acid]: on ΔF508-CFTR [1], the “% Activation” value is given as 168.7% and the EC50 (as a rule, the concentration at which the effect is half-maximal) was 788 nM. On ΔF508-CFTR [2] (setting [3]), the “% Activation” value is reported as 58.82% and the half-maximal effective concentration (EC50) came out at 1670 nM.
In the case of `Cc1nn(-c2ccccc2)c2nc(C(=O)O)cc(-c3ccc(N4CCN(CCO)CC4)cc3)c12` [compound 107], the “% Activation” value at ΔF508-CFTR [1] stood at 164.5%; at ΔF508-CFTR [2] (setting [4]), 20.98%. The EC50 on ΔF508-CFTR [1] was 3340 nM; at ΔF508-CFTR [2] (setting [5]), > 10000 nM.
In the same order, the values of `COCCN(C)c1ccc(-c2cc(C(=O)O)nc3c2c(C(C)C)nn3-c2cccc(N3CCC3)c2)cn1` [compound 239, 1-[3-(azetidin-1-yl)phenyl]-4-{6-[(2-methoxyethyl)(methyl)amino]pyridin-3-yl}-3-(propan-2-yl)-1H-pyrazolo[3,4-b]pyridine-6-carboxylic acid] are 495.85%, 327.55%, 713 nM and 875 nM.
Take `O=C(O)c1cc(OCC(F)(F)F)c2c(C3CCC3)nn(-c3ccccc3)c2n1` [compound 613, 3-cyclobutyl-1-phenyl-4-(2,2,2-trifluoroethoxy)-1H-pyrazolo[3,4-b]pyridine-6-carboxylic acid]: at ΔF508-CFTR [1], the “% Activation” value was found to be 292% and the EC50 came out at 739 nM. Also, at ΔF508-CFTR [2] (setting [3]), the “% Activation” value is listed as 99.78% and the EC50 is 1600 nM.
In the same order, the values of `COCCOCC1(F)CCN(c2cc(C(=O)O)nc3c2c(C2CCC2)nn3-c2ccccc2)C1` (stereo not shown) [compound 532, 3-cyclobutyl-4-{3-fluoro-3-[(2-methoxyethoxy)methyl]pyrrolidin-1-yl}-1-phenyl-1H-pyrazolo[3,4-b]pyridine-6-carboxylic acid] are 271.77%, 349 nM, 107.05% and 707 nM.
Consider `Cc1nn(-c2ccccc2)c2nc(C(=O)O)cc(O[C@@H]3CCCN(C)C3)c12` [compound 343, 3-methyl-4-{[(3R)-1-methylpiperidin-3-yl]oxy}-1-phenyl-1H-pyrazolo[3,4-b]pyridine-6-carboxylic acid], for which the “% Activation” value at ΔF508-CFTR [1] was determined as 104.7%; on ΔF508-CFTR [2] (setting [4]), 11.085%. Also, the EC50 on ΔF508-CFTR [1] and on ΔF508-CFTR [2] (setting [5]) was 7500 nM in each case.
On to `CN1CCC2(CC1)CCN(c1cc(C(=O)O)nc3c1c(C1CCC1)nn3-c1ccc(F)cc1)CC2` [compound 928, 3-cyclobutyl-1-(4-fluorophenyl)-4-(9-methyl-3,9-diazaspiro[5.5]undecan-3-yl)-1H-pyrazolo[3,4-b]pyridine-6-carboxylic acid], for which the “% Activation” value on ΔF508-CFTR [1] is recorded as 362.2%; on ΔF508-CFTR [2] (setting [6]) it was 284.7%. In addition, the EC50 on ΔF508-CFTR [1] worked out at 2410 nM; at ΔF508-CFTR [2] (setting [6]) it was 4030 nM.
Take `CC(c1ccc(-c2cc(C(=O)O)nc3c2c(C2CCC2)nn3C2CCCCC2)cc1)N1CCOCC1` (stereo not shown) [compound 866, 3-cyclobutyl-1-cyclohexyl-4-{4-[1-(morpholin-4-yl)ethyl]phenyl}-1H-pyrazolo[3,4-b]pyridine-6-carboxylic acid]: at ΔF508-CFTR [1], the “% Activation” value stood at 298.3% and the EC50 was found to be 151 nM. In addition, on ΔF508-CFTR [2] (setting [3]), the “% Activation” value was 99.71% and the EC50 came to 277 nM.
In the same order, the values of `O=C(O)c1cc(OCCC2CCCCC2)c2c(C3CCC3)nn(-c3ccccc3)c2n1` [compound 633, 3-cyclobutyl-4-(2-cyclohexylethoxy)-1-phenyl-1H-pyrazolo[3,4-b]pyridine-6-carboxylic acid] are 279.27%, 714 nM, 66.87% and 666 nM.
On the same counts, the results for `CC(C)c1nn(-c2ccc(F)cc2)c2nc(C(=O)O)cc(N3CCC(C4CCN(C)CC4)CC3)c12` [compound 661, 1-(4-fluorophenyl)-4-(1′-methyl [4,4′-bipiperidin]-1-yl)-3-(propan-2-yl)-1H-pyrazolo[3,4-b]pyridine-6-carboxylic acid] are 522.3%, 227 nM, 315% and 565 nM.
In the same order, the values of `COCCN(C)C1CCN(c2cc(C(=O)O)nc3c2c(C2CCC2)nn3-c2ccc(F)cc2)CC1` [compound 895, 3-cyclobutyl-1-(4-fluorophenyl)-4-{4-[(2-methoxyethyl)(methyl)amino]piperidin-1-yl}-1H-pyrazolo[3,4-b]pyridine-6-carboxylic acid] are 429.4%, 3330 nM, 178.2% and 1280 nM.
On to `CC(C)c1nn(C2CCCCC2)c2nc(C(=O)O)cc(C3=CC(C)(C)OC(C)(C)C3)c12` [compound 402, 1-cyclohexyl-3-(propan-2-yl)-4-(2,2,6,6-tetramethyl-3,6-dihydro-2H-pyran-4-yl)-1H-pyrazolo[3,4-b]pyridine-6-carboxylic acid], for which, on ΔF508-CFTR [1], the “% Activation” value turned out to be 214.5% and the concentration giving a half-maximal response (EC50) worked out at 1110 nM. Besides, at ΔF508-CFTR [2] (setting [3]), the “% Activation” value is on record as 43.815% and the EC50 came out at 715 nM.
With `CC(C)c1nn(-c2cccc(N3CCCC3)c2)c2nc(C(=O)O)cc(-c3ccc(N(C)C4CCOCC4)cc3)c12` [compound 249, 4-{4-[nethyl(oxan-4-yl)amino]phenyl}-3-(propan-2-yl)-1-[3-(pyrrolidin-1-yl)phenyl]-1H-pyrazolo[3,4-b]pyridine-6-carboxylic acid], the “% Activation” value amounted to 596.2% at ΔF508-CFTR [1] and 410.6% at ΔF508-CFTR [2] (setting [4]). For the same compound, the EC50 turned out to be 288 nM on ΔF508-CFTR [1] and 475 nM at ΔF508-CFTR [2] (setting [5]).
On to `COC1CCN(c2cc(C(=O)O)nc3c2c(C)nn3-c2ccccc2)CC1` [compound 143, 4-(4-methoxypiperidin-1-yl)-3-methyl-1-phenyl-1H-pyrazolo[3,4-b]pyridine-6-carboxylic acid], for which the “% Activation” value on ΔF508-CFTR [1] was 246.8%; on ΔF508-CFTR [2] (setting [4]), 109.45%. Besides, the EC50 at ΔF508-CFTR [1] turned out to be 2420 nM; on ΔF508-CFTR [2] (setting [5]), 2290 nM.
On the same counts, the results for `COC(=O)N1CC(c2nn(C3CCCCC3)c3nc(C(=O)O)cc(-c4cnc(N(C)C)nc4)c23)C1` [compound 166, 1-cyclohexyl-4-[2-(dimethylamino)pyrimidin-5-yl]-3-[1-(methoxycarbonyl)azetidin-3-yl]-1H-pyrazolo[3,4-b]pyridine-6-carboxylic acid] are 241.5%, 68.01%, 3260 nM and 3340 nM.
Take `O=C(O)c1cc(N2CCC([C@@H](F)CO)CC2)c2c(C3CCC3)nn(-c3ccccc3)c2n1` [compound 458, 3-cyclobutyl-4-{4-[(1R)-1-fluoro-2-hydroxyethyl]piperidin-1-yl}-1-phenyl-1H-pyrazolo[3,4-b]pyridine-6-carboxylic acid]: at ΔF508-CFTR [1], the “% Activation” value is 399.6% and the EC50 is 278 nM. At ΔF508-CFTR [2] (setting [3]), the “% Activation” value is on record as 216.4% and the EC50 stood at 485 nM.
